From patent publication US20080171740A1, “Chemical Compounds” (SMITHKLINE BEECHAM CORPORATION, priority 2004, published 2008) come the findings set out here.

Some results are limits rather than exact numbers.

This test deals with HIV-1 IIIB strain, T-tropic (CXCR4 utilizing). Kind of test: HOS HIV-1 infectivity assay. The conditions noted are these: Human immunodeficiency virus 1, IIIB; HOS HIV anti-infectivity assay; strain not named in Table 2; read-out: Activity Level. It counts as cell-based. Here is the method:
Compounds were profiled against two HIV-1 viruses, the M-tropic (CCR5 utilizing) Ba-L strain and the T-tropic (CXCR4 utilizing) IIIB strain. Both viruses were propagated in human peripheral blood lymphocytes. Compounds were tested for there ability to block infection of the HOS cell line (expressing hCXCR4/hCCR5/hCD4/pHIV-LTR-luciferase) by either HIV-1 Ba-L or HIV-1 IIIB. Compound cytotoxicity was also examined in the absence of virus addition.
HOS cells (expressing hCXCR4/hCCR5/hCD4/pHIV-LTR-luciferase) were harvested and diluted in Dulbeccos modified Eagles media supplemented with 2% FCS and non-essential amino acid to a concentration of 60,000 cells/ml. The cells were plated into 96-well plates (100 ul per well) and the plates were placed in a tissue culture incubator (37° C.; 5% CO2/95% air) for a period of 24 h.
Subsequently, 50 ul of the desired drug solution (4 times the final concentration) was added to each well and the plates were returned to the tissue culture incubator (37° C.; 5% CO2/95% air) for 1 h. Following this incubation 50 ul of diluted virus was added to each well (approximately 2 million RLU per well of virus). The plates were returned to the tissue culture incubator (37° C.; 5% CO2/95% air) and were incubated for a further 96 h.
Following this incubation the endpoint for the virally infected cultures was quantified following addition of Steady-Glo Luciferase assay system reagent (Promega, Madison, Wis.). Cell viability or non-infected cultures was measured using a CellTiter-Glo luminescent cell viability assay system (Promega, Madison, Wis.). All luminescent readouts are performed on a Topcount luminescence detector (Packard, Meridien, Conn.).
`CN1CCN(c2cccc3nc(CN(Cc4cccnc4)[C@H]4CCCc5cccnc54)c(CO)n23)CC1` [Example 35, [5-(4-Methyl-1-piperazinyl)-2-({(3-pyridinylmethyl)[(8S)-5,6,7,8-tetrahydro-8-quinolinyl]amino}methyl)imidazo[1,2-a]pyridin-3-yl]methanol]: the IC50 is less than 100 nM.

For `NCCCCCN(Cc1cn2ccccc2n1)C1CCCc2cccnc21` (stereo not shown) [Example 43, N-(Imidazo[1,2-a]pyridin-2-ylmethyl)-N-(5,6,7,8-tetrahydro-8-quinolinyl)-1,5-pentanediamine], the IC50 lay in the range of 100 to 500 nM.

Turning to `NCCCN(Cc1cn2ccccc2n1)C1CCCc2cccnc21` (stereo not shown) [Example 44, N-(Imidazo[1,2-a]pyridin-2-ylmethyl)-N-(5,6,7,8-tetrahydro-8-quinolinyl)-1,3-propanediamine], the IC50 was in the range of 500 to 10000 nM.

Turning to `CN1CCN(c2cccc3nc(CN(Cc4ccncc4)[C@H]4CCCc5cccnc54)c(CO)n23)CC1` [Example 36, [5-(4-Methyl-1-piperazinyl)-2-({(4-pyridinylmethyl)[(8S)-5,6,7,8-tetrahydro-8-quinolinyl]amino}methyl)imidazo[1,2-a]pyridin-3-yl]methanol], the IC50 is less than 100 nM.

In the case of `NCCCCN(Cc1nc2ccccn2c1Cl)C1CCCc2cccnc21` (stereo not shown) [Example 45, N-[(3-Chloroimidazo[1,2-a]pyridin-2-yl)methyl]-N-(5,6,7,8-tetrahydro-8-quinolinyl)-1,4-butanediamine], the IC50 is less than 100 nM.

Take `CN1CCN(c2cccc3nc(CN(Cc4ccccn4)[C@H]4CCCc5cccnc54)cn23)CC1` [Example 30, (8S)-N-{[5-(4-Methyl-1-piperazinyl)imidazo[1,2-a]pyridin-2-yl]methyl}-N-(2-pyridinylmethyl)-5,6,7,8-tetrahydro-8-quinolinamine]: the IC50 lay in the range of 100 to 500 nM.

Consider `CN1CCN(c2cccc3nc(CN(Cc4ccccc4N(C)C)[C@H]4CCCc5cccnc54)cn23)CC1` [Example 29, (8S)-N-{[2-(Dimethylamino)phenyl]methyl}-N-{[5-(4-methyl-1-piperazinyl)imidazo[1,2-a]pyridin-2-yl]methyl}-5,6,7,8-tetrahydro-8-quinolinamine], for which the IC50 is less than 100 nM.

Take `NCCCCN(Cc1nc2ccccn2c1Br)C1CCCc2cccnc21` (stereo not shown) [Example 46, N-[(3-Bromoimidazo[1,2-a]pyridin-2-yl)methyl]-N-(5,6,7,8-tetrahydro-8-quinolinyl)-1,4-butanediamine]: the IC50 was less than 100 nM.

On to `CN1CCN(c2cccc3nc(CN(Cc4ccncc4)[C@H]4CCCc5cccnc54)cn23)CC1` [Example 32, (8S)-N-{[5-(4-Methyl-1-piperazinyl)imidazo[1,2-a]pyridin-2-yl]methyl}-N-(4-pyridinylmethyl)-5,6,7,8-tetrahydro-8-quinolinamine], for which the IC50 was less than 100 nM.

Consider `CN1CCN(c2cccc3nc(CN(Cc4ccccn4)[C@H]4CCCc5cccnc54)c(CO)n23)CC1` [Example 34, [5-(4-Methyl-1-piperazinyl)-2-({(2-pyridinylmethyl)[(8S)-5,6,7,8-tetrahydro-8-quinolinyl]amino}methyl)imidazo[1,2-a]pyridin-3-yl]methanol], for which the IC50 is less than 100 nM.

For `CN1CCN(c2cccc3nc(CN(Cc4cccnc4)[C@H]4CCCc5cccnc54)cn23)CC1` [Example 31, (8S)-N-{[5-(4-Methyl-1-piperazinyl)imidazo[1,2-a]pyridin-2-yl]methyl}-N-(3-pyridinylmethyl)-5,6,7,8-tetrahydro-8-quinolinamine], the IC50 is less than 100 nM.

As for `NCCN(Cc1cn2ccccc2n1)C1CCCc2cccnc21` (stereo not shown) [Example 42, N-(Imidazo[1,2-a]pyridin-2-ylmethyl)-N-(5,6,7,8-tetrahydroquinolin-8-yl)ethane-1,2-diamine], the IC50 was 500 to 10000 nM.

With `NC1CCC(N(Cc2cn3ccccc3n2)C2CCCc3cccnc32)CC1` (stereo not shown) [Example 37, N-(Imidazo[1,2-a]pyridin-2-ylmethyl)-N-(5,6,7,8-tetrahydro-8-quinolinyl)-1,4-cyclohexanediamine], the IC50 was in the range of 100 to 500 nM.
